Tested on: NCI-H226
Assay: 72H TEAD Proliferation Assay (Cell Titer Glo 2.0)
Format: cell-based
Settings: Homo sapiens, NCI-H226, 72 h, CTG 2.0, cell line not given (NCI-H226 responsive, NCI-H28 non-responsive)
Method: 72H TEAD Proliferation Assay.
The effect of TEAD inhibition on cell proliferation was assayed using Cell Titer Glo (CTG) 2.0 to measure response in mesothelioma cell lines NCI-H226 (ATCC, #CRL-5826) and NCI-H28 (ATCC, #CRL-5820).
The 72H TEAD Proliferation assay utilizes Cell Titer-Glo 2.0 (Promega, #G9243) to measure the proliferation of cells in the presence or absence of compound. Cell Titer-Glo 2.0 determines the amount of viable cells by quantifying ATP (an indication of metabolically active cells). It utilizes the conversion of Luciferin to Oxyluciferin and a luminescent signal with the use of ATP to report the quantity of viable cells in culture. Within cells that are continually growing, ATP is being synthesized to meet their metabolic demands, meanwhile the opposite is true for cells that are dying or slowing down their proliferation and either no longer using ATP or are using less, respectively. The NF2-deficient NCI-H226 has been genetically validated as a cell line that is sensitive to TEAD inhibition. The NF2-wild type NCI-H28 has been genetically validated as a cell line that is not sensitive to TEAD inhibition and grows independently of TEAD activity.
Compounds were screened against the responsive NCI-H226 cell line to assess the compounds' ability to inhibit TEAD and cell growth. Compounds were also screened against the non-responsive NCI-H28 cell line to ascertain whether the inhibition of cell growth was due to inhibition of the target TEAD or whether the inhibition was due to off-target cytotoxicity.
• 1) Assay ready plates (ARPs) were prepared by Echo acoustic liquid handler. […] After CTG addition, plates were placed on shaker at 800 RPM for 15 minutes at room temperature and kept in the dark. Luminescence was measured using EnVision multilabel plate reader with ultra-sensitive detection module. • 9) Data Analysis: First background luminescence (no CTG wells) was subtracted from luminescence reading of all wells, then TO luminescence was subtracted from T72 luminescence. To compare anti-proliferative effect of compounds, GI50 was obtained by fitting dose response curves with nonlinear regression curve fit.

Q: How did the GI50 turn out when `Cc1cc2c(-c3ccc(C(F)(F)F)cc3)nc3cc(C(=O)O)ccc3n2c1` [I-404, 2-Methyl-4-(4-(trifluoromethyl)phenyl)pyrrolo[1,2-a]quinoxaline-7-carboxylic acid] was run?
A: Its GI50 is ≤ 1 µM.

Q: How did the GI50 turn out when `CC(C)(C)c1cccc(-c2nc3cc(C(=O)O)ccc3n3ccnc23)c1` [I-65, 4-(3-(tert-Butyl)phenyl)imidazo[1,2-a]quinoxaline-7-carboxylic acid] was run?
A: Its GI50 is > 10 µM.

Q: With `CN(C)c1cc(-c2ccc(C(F)(F)F)cc2)nc2cc(C(=O)O)ccc12` [I-392, 4-(dimethylamino)-2-(4-(trifluoromethyl)phenyl)quinoline-7-carboxylic acid] as the compound, how does the GI50 read?
A: Its GI50 is 1 to 5 µM.

Q: Which GI50 does the source give for `CC(C)(C)c1ccc(-c2nc3cc(C(=O)O)ccc3n3ccc(F)c23)cc1` [I-115, 4-(4-(tert-Butyl)phenyl)-3-fluoropyrrolo[1,2-a]quinoxaline-7-carboxylic acid] here?
A: Its GI50 is ≤ 1 µM.

Q: With `C=CC(=O)Nc1ccc2c(c1)nc(-c1ccc(C(F)(F)F)cc1F)c1nccn12` [I-133, N-(4-(2-Fluoro-4-(trifluoromethyl)phenyl)imidazo[1,2-a]quinoxalin-7-yl)acrylamide] as the compound, how does the GI50 read?
A: The GI50 was ≤ 1 µM.

Q: `O=C(O)c1ccc2c(c1)nc(-c1c(Cl)cc(C(F)(F)F)cc1Cl)c1cccn12` [I-201, 4-(2,6-Dichloro-4-(trifluoromethyl)phenyl)pyrrolo[1,2-a]quinoxaline-7-carboxylic acid] was tested. Which GI50 did it give?
A: Its GI50 is 5 to 10 µM.

Q: With `CC(C)(C)c1ccc(-c2nc3cc(-c4nnn[nH]4)ccc3n3ccnc23)cc1` [I-76, 4-(4-(tert-Butyl)phenyl)-7-(1H-tetrazol-5-yl)imidazo[1,2-a]quinoxaline] as the compound, how does the GI50 read?
A: Its GI50 is > 10 µM.

Q: How did the GI50 turn out when `COCC(C)CC(=O)N1CCc2c(cccc2-c2ccc(C(F)(F)F)cc2)C1` (centres unmarked) [I-137, 4-Methoxy-3-methyl-1-(5-(4-(trifluoromethyl)phenyl)-3,4-dihydroisoquinolin-2(1H)-yl)butan-1-one] was run?
A: Its GI50 is 1 to 5 µM.

Q: For `C=CC(=O)NCc1cn2cc(C(F)(F)F)nc2c(-c2ccc(C(F)(F)F)cc2)n1` [I-247, N-((2-(trifluoromethyl)-8-(4-(trifluoromethyl)phenyl)imidazo[1,2-a]pyrazin-6-yl)methyl)acrylamide], which GI50 is on record?
A: Its GI50 is ≤ 1 µM.

Q: Which GI50 does the source give for `O=C(O)c1ccc2c(c1)nc(N1CCC3(CCCOC3)CC1)c1cccn12` [I-26, 4-(2-Oxa-9-azaspiro[5.5]undecan-9-yl)pyrrolo[1,2-a]quinoxaline-7-carboxylic acid] here?
A: Its GI50 is 5 to 10 µM.

Q: `O=C(O)c1ccc2c(c1)nc(N1CCc3ccccc3C1)c1cccn12` [I-21, 4-(3,4-Dihydroisoquinolin-2(1H)-yl)pyrrolo[1,2-a]quinoxaline-7-carboxylic acid] was tested. Which GI50 did it give?
A: Its GI50 is > 10 µM.

Q: How did the GI50 turn out when `COc1cc(C(F)(F)F)ccc1-c1nc2cc(C(=O)O)ccc2n2cccc12` [I-55, 4-(2-Methoxy-4-(trifluoromethyl)phenyl)pyrrolo[1,2-a]quinoxaline-7-carboxylic acid] was run?
A: Its GI50 is 5 to 10 µM.

Q: How did the GI50 turn out when `O=C(O)c1cc2nc(N3CCC4(CC3)CC4)c3cccn3c2cn1` [I-281, 6-(6-azaspiro[2.5]octan-6-yl)pyrido[4,3-e]pyrrolo[1,2-a]pyrazine-3-carboxylic acid] was run?
A: Its GI50 is 1 to 5 µM.

Q: How did the GI50 turn out when `C#Cc1cc(-c2ccc(C(F)(F)F)cc2)nc2cc(C(=O)N[C@H](CC)CO)ccc12` [I-400, (R)-4-ethynyl-N-(1-hydroxybutan-2-yl)-2-(4-(trifluoromethyl)phenyl)quinoline-7-carboxamide] was run?
A: The GI50 was ≤ 1 µM.

Q: `O=C(O)c1ccc2c(c1)nc(N1CCC3(CCCC3)C1)c1cccn12` [I-9, 4-(2-Azaspiro[4.4]nonan-2-yl)pyrrolo[1,2-a]quinoxaline-7-carboxylic acid] was tested. Which GI50 did it give?
A: The GI50 was 1 to 5 µM.

Q: With `CC(C)(C)c1ccc(-c2nc3cc(C(=O)O)ccc3n3cc(SC(F)(F)F)cc23)cc1` [I-411, 4-(4-(tert-Butyl)phenyl)-2-((trifluoromethyl)thio)pyrrolo[1,2-a]quinoxaline-7-carboxylic acid] as the compound, how does the GI50 read?
A: Its GI50 is 1 to 5 µM.

Q: `CC1(C)CC2(CCN(c3nc4cc(C(=O)O)ccc4n4cccc34)CC2)CO1` [I-34, 4-(3,3-Dimethyl-2-oxa-8-azaspiro [4.5]decan-8-yl) pyrrolo[1,2-a] quinoxaline-7-carboxylic acid] was tested. Which GI50 did it give?
A: Its GI50 is > 10 µM.

Q: `N#CNCc1cn2ccnc2c(-c2ccc(C(F)(F)F)cc2)n1` [I-238, N-((8-(4-(Trifluoromethyl)phenyl)imidazo[1,2-a]pyrazin-6-yl)methyl)cyanamide] was tested. Which GI50 did it give?
A: The GI50 was 1 to 5 µM.

Q: Which GI50 does the source give for `CC(C)(C)c1ccc(-c2nc3cc(C(=O)O)ncc3n3cccc23)cc1` [I-282, 6-(4-(tert-butyl)phenyl)pyrido[4,3-e]pyrrolo[1,2-a]pyrazine-3-carboxylic acid] here?
A: Its GI50 is 1 to 5 µM.

Q: How did the GI50 turn out when `C=CC(=O)Nc1cn2ccnc2c(-c2ccc(C(C)(C)C)cc2)n1` [I-146, N-(8-(4-(tert-Butyl)phenyl)imidazo[1,2-a]pyrazin-6-yl)acrylamide] was run?
A: Its GI50 is 1 to 5 µM.

Q: Which GI50 does the source give for `COc1cc(-c2ccc(C(F)(F)F)cc2)nc2cc(C(=O)N[C@@H](CO)c3ccccn3)ccc12` [I-365, (R)—N-(2-hydroxy-1-(pyridin-2-yl)ethyl)-4-methoxy-2-(4-(trifluoromethyl)phenyl)quinoline-7-carboxamide] here?
A: The GI50 was ≤ 1 µM.

Q: How did the GI50 turn out when `CN(CCCC(F)(F)F)c1nc2cc(C(=O)O)ccc2n2cccc12` [I-125, 4-(Methyl(4,4,4-trifluorobutyl)amino)pyrrolo[1,2-a]quinoxaline-7-carboxylic acid] was run?
A: The GI50 was > 10 µM.

Q: For `COCC(C)NC(=O)N1CCc2c(cccc2-c2ccc(C(F)(F)F)cc2)C1` (centres unmarked) [I-78, N-(1-methoxypropan-2-yl)-5-(4-(trifluoromethyl)phenyl)-3,4-dihydroisoquinoline-2(1H)-carboxamide], which GI50 is on record?
A: The GI50 was ≤ 1 µM.

Q: How did the GI50 turn out when `Cc1cc(-c2ccc(OC(F)(F)F)cc2)nc2cc(C(=O)N[C@H](C)CO)ccc12` [I-255, (R)—N-(1-hydroxypropan-2-yl)-4-methyl-2-(4-(trifluoromethoxy)phenyl)quinoline-7-carboxamide] was run?
A: The GI50 was 1 to 5 µM.

Q: For `O=C(O)c1ccc2c(c1)nc(N1CCC3(CC1)CC3)c1ncnn12` [I-285, 4-(6-azaspiro[2.5]octan-6-yl)-[1,2,4]triazolo[1,5-a]quinoxaline-7-carboxylic acid], which GI50 is on record?
A: Its GI50 is 1 to 5 µM.

Q: With `O=C(O)c1ccc2c(c1)nc(-c1ccc(C(F)(F)F)nc1)c1cccn12` [I-51, 4-(6-(Trifluoromethyl)pyridin-3-yl)pyrrolo[1,2-a]quinoxaline-7-carboxylic acid] as the compound, how does the GI50 read?
A: Its GI50 is 1 to 5 µM.

Q: `C=CC(=O)NC1CCCc2ccc(-c3ccc(C(F)(F)F)cc3)nc21` (centres unmarked) [I-412, N-(2-(4-(trifluoromethyl)phenyl)-5,6,7,8-tetrahydroquinolin-8-yl)acrylamide] was tested. Which GI50 did it give?
A: Its GI50 is 5 to 10 µM.

Q: `Cc1cnc(-c2nc3cc(C(=O)O)ccc3n3cccc23)nc1` [I-129, 4-(5-Methylpyrimidin-2-yl)pyrrolo[1,2-a]quinoxaline-7-carboxylic acid] was tested. Which GI50 did it give?
A: The GI50 was 1 to 5 µM.

Q: How did the GI50 turn out when `O=C(O)c1ccc2c(c1)nc(OC1CCC(C(F)(F)F)CC1)c1cccn12` (mixture of isomers) [I-127, 4-((4-(Trifluoromethyl)cyclohexyl)oxy)pyrrolo[1,2-a]quinoxaline-7-carboxylic acid] was run?
A: The GI50 was 1 to 5 µM.

Q: How did the GI50 turn out when `COc1cc(N2CCC(C(F)(F)F)CC2)nc2cc(C(=O)N[C@H](C)CO)ccc12` [I-328, (R)—N-(1-hydroxypropan-2-yl)-4-methoxy-2-(4-(trifluoromethyl)piperidin-1-yl)quinoline-7-carboxamide] was run?
A: Its GI50 is 1 to 5 µM.

Q: Which GI50 does the source give for `C=CC(=O)NCc1nc(-c2ccc(C(F)(F)F)cc2)c2ccn(C)c2n1` [I-292, N-((7-methyl-4-(4-(trifluoromethyl)phenyl)-7H-pyrrolo[2,3-d]pyrimidin-2-yl)methyl)acrylamide] here?
A: The GI50 was ≤ 1 µM.

Q: Which GI50 does the source give for `C=CC(=O)NCc1cn2ccnc2c(Nc2cccc(OC(F)(F)F)c2)n1` [I-442, N-((8-((3-(trifluoromethoxy)phenyl)amino)imidazo[1,2-a]pyrazin-6-yl)methyl)acrylamide] here?
A: The GI50 was 1 to 5 µM.

Q: Which GI50 does the source give for `CC(C)(C)c1ccc(-c2nc3cc(C(N)=O)ccc3n3ccnc23)cc1` [I-73, 4-(4-(tert-Butyl)phenyl)imidazo[1,2-a]quinoxaline-7-carboxamide] here?
A: Its GI50 is 1 to 5 µM.

Q: For `COc1ccc(-c2nc3cc(C(=O)O)ccc3n3cccc23)cc1` [I-46, 4-(4-Methoxyphenyl)pyrrolo[1,2-a]quinoxaline-7-carboxylic acid], which GI50 is on record?
A: Its GI50 is > 10 µM.

Q: With `C[C@H](CO)NC(=O)c1ccc2c(C3CC3)cc(-c3ccc(C(F)(F)F)cc3)nc2c1` [I-386, (R)-4-cyclopropyl-N-(1-hydroxypropan-2-yl)-2-(4-(trifluoromethyl)phenyl)quinoline-7-carboxamide] as the compound, how does the GI50 read?
A: The GI50 was ≤ 1 µM.

Q: For `O=C(O)c1ccc2c(c1)nc(-c1ccc(C3CCCCC3)cc1)c1nccn12` [I-62, 4-(4-Cyclohexylphenyl)imidazo[1,2-a]quinoxaline-7-carboxylic acid], which GI50 is on record?
A: The GI50 was > 10 µM.

Q: Which GI50 does the source give for `C=CC(=O)NCc1nc(-c2ccc(C(F)(F)F)cc2F)c2ncccc2n1` [I-306, N-((4-(2-fluoro-4-(trifluoromethyl)phenyl)pyrido[3,2-d]pyrimidin-2-yl)methyl)acrylamide] here?
A: The GI50 was ≤ 1 µM.

Q: With `COc1cn2ccnc2c(-c2ccc(C(C)(C)C)cc2)n1` [I-149, 8-(4-(tert-Butyl)phenyl)-6-methoxyimidazo[1,2-a]pyrazine] as the compound, how does the GI50 read?
A: The GI50 was > 10 µM.
